Reference: patent US20260167637A1, “NLRP3 INFLAMMASOME INHIBITOR AND USE THEREOF” (TransThera Sciences (Nanjing), Inc., priority 2022, published 2026)
pIC50: −log10 of the molar value. Like-named read-outs stand apart in the source and are kept apart here.

Experiments:
[1] = target: T1, THP-1 cell NLRP3 (Homo sapiens, UniProt Q96P20); assay: Inhibitory activity against cell NLRP3 inflammasomes in THP-1 cells (LPS + nigericin, ELISA of supernatant); assay type: cell-based; conditions: PMA-differentiated THP-1 cells, LPS 500 ng/mL 3 h, compound 1 h, nigericin 30 min; human IL-10 (so in the source) in supernatant by ELISA
T1 construct: endogenous in cells; host or cells: THP-1 cells, PMA-differentiated, stimulated with LPS and nigericin
T1 sequence (Q96P20 whole entry): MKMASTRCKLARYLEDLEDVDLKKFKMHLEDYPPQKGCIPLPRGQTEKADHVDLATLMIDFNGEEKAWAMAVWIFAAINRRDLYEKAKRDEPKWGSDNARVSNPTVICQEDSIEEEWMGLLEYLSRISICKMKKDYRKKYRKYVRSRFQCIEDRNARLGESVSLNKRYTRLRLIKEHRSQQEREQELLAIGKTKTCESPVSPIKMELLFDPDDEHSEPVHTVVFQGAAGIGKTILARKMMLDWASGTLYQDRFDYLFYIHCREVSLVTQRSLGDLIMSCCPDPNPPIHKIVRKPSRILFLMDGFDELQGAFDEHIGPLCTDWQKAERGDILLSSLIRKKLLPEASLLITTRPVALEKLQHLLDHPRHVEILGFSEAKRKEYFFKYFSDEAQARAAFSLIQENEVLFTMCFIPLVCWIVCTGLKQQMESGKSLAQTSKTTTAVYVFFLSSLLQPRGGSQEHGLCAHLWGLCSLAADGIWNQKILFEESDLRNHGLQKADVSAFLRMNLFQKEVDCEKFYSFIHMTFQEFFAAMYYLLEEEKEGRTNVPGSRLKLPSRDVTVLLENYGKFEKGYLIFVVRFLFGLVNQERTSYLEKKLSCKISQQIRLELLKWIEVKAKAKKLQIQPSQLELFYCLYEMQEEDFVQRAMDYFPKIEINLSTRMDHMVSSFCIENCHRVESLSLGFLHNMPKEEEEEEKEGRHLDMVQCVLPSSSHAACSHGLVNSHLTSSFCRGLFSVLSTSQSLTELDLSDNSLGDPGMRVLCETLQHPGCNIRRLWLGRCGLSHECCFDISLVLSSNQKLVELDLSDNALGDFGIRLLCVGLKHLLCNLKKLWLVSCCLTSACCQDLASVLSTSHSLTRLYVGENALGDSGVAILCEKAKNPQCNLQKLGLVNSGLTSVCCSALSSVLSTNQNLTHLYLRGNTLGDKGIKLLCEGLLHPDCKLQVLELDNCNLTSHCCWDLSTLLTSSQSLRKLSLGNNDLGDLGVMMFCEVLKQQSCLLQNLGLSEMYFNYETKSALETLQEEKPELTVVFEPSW
Description: Experimental Example 1: Assay for Inhibitory Activity of Compounds Disclosed Herein Against Cell NLRP3 Inflammasomes
Test substances: The compounds of the present disclosure, prepared according to the methods described in the examples.
THP-1 is an immortalized human […] cell line.
Instrument: microplate reader (made by PE)
Assay Method: 1. THP-1 cells were cultured in 1640 complete medium (500 mL of 1640+56 mL of FBS+560 μL of 1000×P/S+2 μL of mercaptoethanol), and cells at passages 3-20 were used.
2. Culture plate coating: 100 μL of polylysine solution was added to a 96-well cell culture plate. After 30 min of incubation at 37° C., the solution was discarded, and the plate was washed with PBS twice for later use.
3. Induction of THP-1 differentiation: THP-1 cells were resuspended in an appropriate amount of complete medium containing 10 ng/mL PMA to form a cell suspension with a density of 5×10^5 cells/mL. The suspension was added to the 96-well plate at 100 μL/well, and the plate was incubated overnight in a 37° C. carbon dioxide cell incubator for 16 h.
4. Stimulation of THP-1: • a. Serum-free THP-1 culture medium containing LPS was added, with the final concentration being 500 ng/mL. The plate was incubated in a 37° C. carbon dioxide cell incubator for 3 h. • b. Mother liquors of the compounds to be tested with gradient concentrations were prepared with DMSO, added to the cells, and well mixed. Dilution was finally performed in a 1:1000 ratio. The plate was incubated in a 37° C. carbon dioxide cell incubator for 1 h. • c. Nigericin was added to each well, with the final concentration being […]. The plate was incubated in a carbon dioxide cell incubator at 37° C. for 30 min. • d. The medium in the wells was transferred to a new culture plate, and after 5 min of centrifugation at 3000 rpm, the supernatant was transferred to a new 96-well plate. • e. The content of human […] in the collected cell culture supernatant samples was determined with a commercial ELISA kit by following the instructions.

[2] = Stability in canine liver microsomes; assay type: in vitro ADME; conditions: canine liver microsomes 0.5 mg protein/mL, 1 μM test substance, β-NADPH 1 mM, 37° C.; for microsomal CLint at 1 μM / half-life at 1 μM: dog; for half-life at 1 μM: read-out: Canine t1/2
Description: (§1) Experimental Example 2: Evaluation of Stability of Compounds Disclosed Herein in Liver Microsomes
(§2) Composition of experimental incubation system:
(§3) An appropriate amount of the compound was precisely weighed out and dissolved in DMSO to prepare a 10.0 mM stock solution. The 10.0 mM stock solution was diluted with DMSO to 1.0 mM, and then diluted with phosphate buffer (containing 3 mM MgCl2) to prepare a 10 μM test substance working solution for later use (DMSO content in the reaction system: 0.1%).
(§4) An appropriate amount of β-NADPH was precisely weighed out and then prepared into a 5 mM β-NADPH working solution using phosphate buffer (containing 3 mM MgCl2) for later use.
(§5) (1) The liver microsomes (20 mg protein/mL) were taken out from a −80° C. freezer and pre-incubated on a 37° C. water bath thermostatic oscillator for 3 min to thaw for later use.
(§6) (2) A mixed solution of the incubation system (without β-NADPH) was prepared according to “composition of experimental incubation system” described above, and pre-incubated on a 37° C. water bath thermostatic oscillator for 2 min.
(§7) (3) Control group (without β-NADPH): 10 μL of phosphate buffer (containing 3 mM MgCl2) and 40 μL of the mixed solution of the incubation system in step (2) were taken and mixed, and the mixture was vortexed for 30 s and mixed well, resulting in a total reaction volume of 50 μL; the sample was duplicated. The mixture was placed on a 37° C. water bath thermostatic oscillator for incubation, and timing was started, with termination time points set at 0 min and 60 min.
(§8) (4) Sample group: 10 μL of the β-NADPH solution (5 mM) and 40 μL of the mixed solution in step (2) were taken and mixed, resulting in a total reaction volume of 50 μL; the mixture was vortexed for 30 s and mixed well; the sample was duplicated. The mixture was placed on a 37° C. water bath thermostatic oscillator for incubation, and timing was started, with termination time points set at 0 min, 5 min, 10 min, 20 min, 30 min, and 60 min.
(§9) (5) The mixture was vortexed for 5 min and then centrifuged at 4000 rpm for 10 min.
(§10) (6) 50 μL of the supernatant was taken and added to 150 μL of water, and the resulting mixture was vortexed and mixed well before LC/MS/MS analysis.
(§11) The half-life (t1/2) and clearance rate (CL) were calculated using the following first-order kinetic formula
(§12) Notes: k denotes the slope of the logarithm of the remaining amount of a compound vs. time, and Vd denotes apparent volume of distribution.

[3] = Stability in rat liver microsomes; assay type: in vitro ADME; conditions: rat liver microsomes 0.5 mg protein/mL, 1 μM test substance, β-NADPH 1 mM, 37° C.; for half-life at 1 μM: read-out: Rat t1/2
Description: as §1, §2, §3, §4, §5, §6, §7, §8, §9, §10, §11, §12

[4] = Pharmacokinetic study in mice; assay type: in vivo, female C57BL/6J mice; conditions: female, C57BL/6J, mouse, plasma
Description: (§13) The compounds were prepared into solutions using a mixed vehicle composed of 5% dimethyl sulfoxide, 20% (30% solutol), and 75% normal saline. The compound solutions were intragastrically administered to female C57BL/6J mice at a dose of 10 mg/kg, and the blood collection time points were: 15 min, 30 min, 1 h, 2 h, 4 h, 6 h, 8 h, and 24 h.
as §13, with “intravenously injected into” for “intragastrically administered to”, “5” for “10”, “were: 5 min,” for “were:”
The samples to be tested were taken out from a −80° C. freezer, naturally thawed at room temperature, and then vortexed for 5 min.
Plasma samples of 10 μL from different individuals were accurately pipetted into 1.5 mL centrifuge tubes.
900 μL of a 100 ng/mL internal standard working solution (a solution of tolbutamide in acetonitrile) was added, and the mixture was well mixed.
After 5 min of vortexing, centrifugation was performed at 12,000 rpm for 5 min.
50 μL of the supernatant was accurately pipetted into a 96-well plate to which water was added in advance at 150 μL/well.
After 5 min of vortexing, LC-MS/MS analysis was performed.
The results of the test substance concentrations were output by Analyst 1.6.3 of AB Sciex.
Parameters such as mean, standard deviation, and coefficient of variation (excluding those output directly by Analyst 1.6.3) were calculated using Microsoft Excel. PK parameters were calculated using WinNonlin Phenoix 8.2 software NCA (Tmax was a median).

pIC50 [1]	microsomal CLint at 1 μM [2] [µL/min/mg]	half-life at 1 μM [2] [h]	microsomal CLint at 1 μM [3] [µL/min/mg]	half-life at 1 μM [3] [h]	SMILES	also measured
8.96	8	2.88	10.4	2.22	C#Cc1ccc(-c2nnc(N[C@@H]3CCCN(C)C3)cc2C2CCC2)c(O)c1 [Compound 82, (R)-5-ethynyl-2-(4-cyclobutyl-6-((1-methylpiperidin-3-yl)amino)pyridazin-3-yl)phenol]	
8.21	3.8	6.08	10	2.32	C#Cc1ccc(-c2nnc(N[C@@H]3CCCC[C@H]3O)cc2C)c(O)c1 [Compound 83, 5-ethynyl-2-(6-(((1R,2R)-2-hydroxycyclohexyl)amino)-4-methylpyridazin-3-yl)phenol]	
9.52	6.6	3.5	7.8	2.97	[2H]C([2H])([2H])N1CCC[C@@H](Nc2nnc(-c3ccc(C#C)cc3O)c(C)n2)C1 [Compound 86, (R)-5-ethynyl-2-(5-methyl-3-((1-(methyl-d3)piperidin-3-yl)amino)-1,2,4-triazin-6-yl)phenol]	
8.92	1.6	14.4	2	11.6	[2H]C([2H])([2H])N1CCC[C@@H](Nc2nnc(-c3ccc(C#C)cc3O)n(C)c2=O)C1 [Compound 88, (R)-3-(4-ethynyl-2-hydroxyphenyl)-4-methyl-6-((1-(methyl-d3)piperidin-3-yl)amino)-1,2,4-triazin-5(4H)-one]	
9.70	6.2	3.73	8	2.88	C#Cc1ccc(-c2nnc(N[C@@H]3CCCN(CC)C3)cc2C)c(O)c1 [Compound 89, (R)-2-(6-((1-ethylpiperidin-3-yl)amino)-4-methylpyridazin-3-yl)-5-ethynylphenol]	
9.40					C#Cc1ccc(-c2nnc(N[C@@H]3CCCN(CC)C3)cc2C2CC2)c(O)c1 [Compound 90, (R)-2-(4-cyclopropyl-6-((1-ethylpiperidin-3-yl)amino)pyridazin-3-yl)-5-ethynylphenol]	AUC(0-t) ([4]; iv 5 mg/kg, read-out: AUClast iv (0-24 h)): 4020 ng·h/mL; clearance ([4]; iv 5 mg/kg, read-out: Cl—obs iv (clearance rate) (converted)): 20.7 mL/min/kg; Vd ([4]; iv 5 mg/kg, read-out: Vss iv (distribution volume)): 6.23 L/kg; half-life ([4]; iv 5 mg/kg, read-out: tz1/2 iv (terminal half-life) (converted)): 3.23 h; bioavailability ([4]; po 10 mg/kg vs iv 5 mg/kg, read-out: F% (absolute bioavailability)): 94.5%; Tmax ([4]; po 10 mg/kg, median, read-out: Tmax po (time to peak plasma concentration)): 2 h; AUC(0-t) ([4]; po 10 mg/kg, read-out: AUClast po (0-24 h)): 7580 ng·h/mL; Cmax ([4]; po 10 mg/kg, read-out: Cmax po (peak concentration)): 900 ng/mL; half-life ([4]; po 10 mg/kg, read-out: tz1/2 po (terminal half-life) (converted)): 3.33 h
8.85	5	4.62	5.6	4.13	C#Cc1ccc(-c2nnc(N[C@@H]3CCCN(CC)C3)c(=O)n2C)c(O)c1 [Compound 93, (R)-6-((1-ethylpiperidin-3-yl)amino)-3-(4-ethynyl-2-hydroxyphenyl)-4-methyl-1,2,4-triazin-5(4H)-one]	
9.15	6.6	3.5	3.2	7.22	C#Cc1ccc(-c2nnc(N[C@@H]3CCCN(CCO)C3)nc2C)c(O)c1 [Compound 99, (R)-5-ethynyl-2-(3-((1-(2-hydroxyethyl)piperidin-3-yl)amino)-5-methyl-1,2,4-triazin-6-yl)phenol]	
8.89	1	23.1	0.4	57.8	C#Cc1ccc(-c2nnc(N[C@@H]3CCCN(C)C3)cc2C(F)(F)F)c(O)c1 [Compound 114, (R)-5-Ethynyl-2-(4-trifluoromethyl-6-((1-methylpiperidin-3-yl)amino)pyridazin-3-yl)phenol]	
9.52	3.6	6.42	20.2	1.14	C#Cc1ccc(-c2nnc(N[C@@H]3CCCN(C)C3)cc2C(F)F)c(O)c1 [Compound 115, (R)-2-(4-Difluoromethyl-6-((1-methylpiperidin-3-yl)amino)pyridazin-3-yl)-5-ethynylphenol]	
9.30					C#Cc1ccc(-c2nnc(N[C@@H]3CCCNC3)cc2C2CC2)c(O)c1 [Compound 149, (R)-2-(4-cyclopropyl-6-(piperidin-3-ylamino)pyridazin-3-yl)-5-ethynylphenol]	Canine t1/2 [2]: →∞; Rat t1/2 [3]: →∞
